Test results: US20080096811A1, “[…] VPAC2 RECEPTOR PEPTIDE AGONISTS” (Eli Lilly and Company, published 2008)
Like-named read-outs stand apart in the source and are kept apart here. *1 amine or outer side, *2 acyl side, *3 side chain or, on linkers, in order; H or OH if unused. Where a SMILES comes first, the peptide text is derived from it. Where no end group is shown, it is not given here. Side-chain parts run from the residue outwards. The star is where a group is joined. γGlu = O=C(O)[C@H](CCC(=O)[*:2])N[*:1]; Palmitoyl = CCCCCCCCCCCCCCCC(=O)*; Hexanoyl = CCCCCC(=O)*

B1: P30 (peptide)
peptide: Hexanoyl-HSDAVFTDNYTRLRKQVAAKKYLQSIKNSRTSPPP-NH2
SMILES: CCCCCC(=O)N[C@@H](Cc1c[nH]cn1)C(=O)N[C@@H](CO)C(=O)N[C@@H](CC(=O)O)C(=O)N[C@@H](C)C(=O)N[C@H](C(=O)N[C@@H](Cc1ccccc1)C(=O)N[C@H](C(=O)N[C@@H](CC(=O)O)C(=O)N[C@@H](CC(N)=O)C(=O)N[C@@H](Cc1ccc(O)cc1)C(=O)N[C@H](C(=O)N[C@@H](CCCNC(=N)N)C(=O)N[C@@H](CC(C)C)C(=O)N[C@@H](CCCNC(=N)N)C(=O)N[C@@H](CCCCN)C(=O)N[C@@H](CCC(N)=O)C(=O)N[C@H](C(=O)N[C@@H](C)C(=O)N[C@@H](C)C(=O)N[C@@H](CCCCN)C(=O)N[C@@H](CCCCN)C(=O)N[C@@H](Cc1ccc(O)cc1)C(=O)N[C@@H](CC(C)C)C(=O)N[C@@H](CCC(N)=O)C(=O)N[C@@H](CO)C(=O)N[C@H](C(=O)N[C@@H](CCCCN)C(=O)N[C@@H](CC(N)=O)C(=O)N[C@@H](CO)C(=O)N[C@@H](CCCNC(=N)N)C(=O)N[C@H](C(=O)N[C@@H](CO)C(=O)N1CCC[C@H]1C(=O)N1CCC[C@H]1C(=O)N1CCC[C@H]1C(N)=O)[C@@H](C)O)[C@@H](C)CC)C(C)C)[C@@H](C)O)[C@@H](C)O)C(C)C

Key:
human VPAC1 [1] = target: T1, human VPAC1 (Homo sapiens, UniProt P32241); test: DiscoveRx cAMP in vitro potency, human VPAC1; assay type: cell-based; set-up: expressed in transfected cells; host or cells: CHO-PO, transient transfection (Lipofectamine)
T1 sequence (P32241 31-457): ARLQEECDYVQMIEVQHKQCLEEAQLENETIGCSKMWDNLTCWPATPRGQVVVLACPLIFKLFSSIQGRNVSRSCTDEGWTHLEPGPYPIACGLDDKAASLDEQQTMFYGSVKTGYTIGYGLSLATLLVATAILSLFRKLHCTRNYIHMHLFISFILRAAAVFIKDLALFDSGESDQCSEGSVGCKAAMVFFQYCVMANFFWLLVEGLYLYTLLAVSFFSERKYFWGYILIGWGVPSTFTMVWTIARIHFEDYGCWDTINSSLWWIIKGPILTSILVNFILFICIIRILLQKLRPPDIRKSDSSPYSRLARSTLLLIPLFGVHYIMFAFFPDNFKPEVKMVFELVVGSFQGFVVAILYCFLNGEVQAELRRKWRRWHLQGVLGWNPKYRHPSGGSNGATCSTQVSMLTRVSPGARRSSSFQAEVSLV
Description: (§1) Also, the cells are washed twice. The cells are incubated in assay buffer plus IBMX for 15 minutes at room temperature. […] The stimuli are present for 30 minutes. Then, the assay buffer is gently removed. […] At day 3, the assay described above for the VPAC2 receptor cell line is performed.

human VPAC2 [2] = target: T2, human VPAC2 (Homo sapiens, UniProt P41587); test: Filter binding assay, human VPAC2 membranes, 125I-labeled VIP tracer
T2 construct: expressed in transfected cells
T2 sequence (P41587 24-438): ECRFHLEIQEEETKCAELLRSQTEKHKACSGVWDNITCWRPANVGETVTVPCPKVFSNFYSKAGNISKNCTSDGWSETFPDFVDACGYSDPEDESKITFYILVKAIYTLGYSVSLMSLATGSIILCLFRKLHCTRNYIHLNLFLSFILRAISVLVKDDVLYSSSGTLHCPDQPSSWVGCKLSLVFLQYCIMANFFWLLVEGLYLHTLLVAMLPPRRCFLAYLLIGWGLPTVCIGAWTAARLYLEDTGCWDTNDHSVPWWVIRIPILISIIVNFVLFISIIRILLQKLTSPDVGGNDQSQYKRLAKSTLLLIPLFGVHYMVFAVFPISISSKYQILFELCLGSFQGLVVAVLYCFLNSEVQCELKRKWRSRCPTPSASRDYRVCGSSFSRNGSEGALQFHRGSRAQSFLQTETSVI

human VPAC1 [3] = target: T1, human VPAC1; test: Filter binding assay, human VPAC1 membranes, 125I-labeled VIP tracer; set-up: expressed in transfected cells
human VPAC2 [4] = target: T2, human VPAC2; test: Alpha screen cAMP in vitro potency, human VPAC2; assay type: cell-based
human VPAC2 [5] = target: T2, human VPAC2; test: DiscoveRx cAMP in vitro potency, human VPAC2; assay type: cell-based
Description: as §1

human PAC1 [6] = target: T3, human PAC1 (Homo sapiens, UniProt P41586); test: cell-based
Description: as §1

human PAC1 [7] = target: T3, human PAC1; test: biochemical
Normal Wistar rats = test: Intravenous glucose tolerance test (IVGTT); assay type: in vivo; details: Wistar rat, insulin
Description: Intravenous glucose tolerance test (IVGTT): Normal Wistar rats are fasted overnight and are anesthetized prior to the experiment. A blood sampling catheter is inserted into the rats. The compound is given in the jugular vein. Blood samples are taken from the carotid artery. A blood sample is drawn immediately prior to the injection of glucose along with the compound. After the initial blood sample, glucose mixed with compound is injected intravenously (i.v.). A glucose challenge of 0.5 g/kg body weight is given, injecting a total of 1.5 mL vehicle with glucose and agonist per kg body weight. The peptide concentration vary to produce the desired dose in μg/kg. Blood samples are drawn at 2, 4, 6 and 10 minutes after giving glucose. The control group of animals receives the same vehicle along with glucose, but with no compound added. In some instances, a 30 minute post-glucose blood sample is drawn. Aprotinin is added to the blood sample (250 kIU/ml blood). The serum is then analyzed for glucose and insulin using standard methodologies.
The assay uses a formulated and calibrated peptide stock in PBS. Normally, this stock is a prediluted 100 μM stock. However, a more concentrated stock with approximately 1 mg agonist per mL is used. The specific concentration is always known. Variability in the maximal response is mostly due to variability in the vehicle dose.

rat VPAC2 receptor [8] = target: rat VPAC2 receptor (Rattus norvegicus, UniProt P35000); test: cell-based
Description: DiscoveRx: A CHO—S cell line stably expressing human VPAC2 receptor in a 96-well microtiter plate is seeded with 50,000 cells/well the day before the assay. The cells are allowed to attach for 24 hours in 200 μL culture medium. On the day of the experiment, the medium is removed. Also, the cells are washed twice. The cells are incubated in assay buffer plus IBMX for 15 minutes at room temperature. Afterwards, the stimuli are added and are dissolved in assay buffer. The stimuli are present for 30 minutes. Then, the assay buffer is gently removed. The cell lysis reagent of the DiscoveRx cAMP kit is added. Thereafter, the standard protocol for developing the cAMP signal as described by the manufacturer is used (DiscoveRx Inc., USA). EC50 values for cAMP generation are calculated from the raw signal or are based on absolute cAMP levels as determined by a standard curve performed on each plate.
CHO—PO cells are transiently transfected with rat VPAC1 or VPAC2 receptor DNA.

[9] = target: T4, human VPAC1 receptor (human) (UniProt P32241)
T4 sequence: T1 sequence (P32241 31-457)

[10] = target: T5, human VPAC2 receptor (human) (UniProt P41587)
T5 sequence: T2 sequence (P41587 24-438)

human PAC1 receptor [11] = target: T6, human PAC1 receptor (human, UniProt P41586)
Target sequence in this assay (P41586 21-468): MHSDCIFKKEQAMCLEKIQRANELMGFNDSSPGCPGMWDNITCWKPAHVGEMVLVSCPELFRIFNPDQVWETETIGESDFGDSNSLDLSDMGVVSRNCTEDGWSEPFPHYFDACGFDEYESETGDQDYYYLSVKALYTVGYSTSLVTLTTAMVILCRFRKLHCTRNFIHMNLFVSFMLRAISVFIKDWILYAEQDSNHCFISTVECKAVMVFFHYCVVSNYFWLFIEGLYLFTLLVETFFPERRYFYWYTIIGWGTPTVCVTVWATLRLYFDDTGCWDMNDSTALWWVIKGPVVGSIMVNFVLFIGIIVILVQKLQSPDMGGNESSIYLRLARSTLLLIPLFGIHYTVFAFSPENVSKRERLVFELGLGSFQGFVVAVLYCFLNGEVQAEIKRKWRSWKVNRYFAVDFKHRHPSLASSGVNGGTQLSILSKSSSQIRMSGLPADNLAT

rat VPAC1 receptor = target: T7, rat VPAC1 receptor (rat, UniProt P30083); test: cell-based or functional assay
T7 sequence: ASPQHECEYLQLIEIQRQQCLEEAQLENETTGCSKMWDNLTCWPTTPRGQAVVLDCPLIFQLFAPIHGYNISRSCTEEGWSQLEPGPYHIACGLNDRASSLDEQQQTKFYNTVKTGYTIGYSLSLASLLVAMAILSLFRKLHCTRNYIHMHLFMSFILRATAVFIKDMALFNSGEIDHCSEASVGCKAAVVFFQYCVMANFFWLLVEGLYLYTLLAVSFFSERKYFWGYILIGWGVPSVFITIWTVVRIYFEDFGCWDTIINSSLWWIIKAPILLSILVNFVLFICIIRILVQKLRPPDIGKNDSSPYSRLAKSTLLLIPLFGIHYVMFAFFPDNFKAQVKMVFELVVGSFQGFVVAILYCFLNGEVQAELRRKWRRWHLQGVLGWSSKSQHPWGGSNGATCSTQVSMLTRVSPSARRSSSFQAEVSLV

human PAC1 receptor [12] = target: T6, human PAC1 receptor; test: cell-based or functional assay
rat VPAC2 receptor [13] = target: T8, rat VPAC2 receptor (rat, UniProt P35000); test: cell-based or functional assay
T8 sequence: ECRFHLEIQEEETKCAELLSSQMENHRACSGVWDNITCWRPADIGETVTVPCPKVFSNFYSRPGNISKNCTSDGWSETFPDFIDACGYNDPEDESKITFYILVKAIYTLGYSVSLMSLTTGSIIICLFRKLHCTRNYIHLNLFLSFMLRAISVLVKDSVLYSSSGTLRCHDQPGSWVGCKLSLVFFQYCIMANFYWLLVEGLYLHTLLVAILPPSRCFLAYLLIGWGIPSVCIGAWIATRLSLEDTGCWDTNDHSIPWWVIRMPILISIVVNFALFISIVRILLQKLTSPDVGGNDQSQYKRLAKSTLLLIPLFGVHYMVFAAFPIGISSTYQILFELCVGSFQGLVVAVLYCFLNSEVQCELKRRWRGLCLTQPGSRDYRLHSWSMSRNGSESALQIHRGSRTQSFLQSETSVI

T3 sequence (P41586 21-468): as the sequence (P41586 21-468) above

| Molecule | IC50 (human VPAC2 [2]) | IC50 (human VPAC1 [3]) | EC50 (human VPAC2 [4]) | EC50 (human VPAC2 [5]) | EC50 (nM) for cAMP generation, DiscoveRx [9] | EC50 (nM) for cAMP generation, Alpha Screen [10] | EC50 (nM) for cAMP generation, DiscoveRx [10] | EC50 (nM) for cAMP generation, DiscoveRx (human PAC1 receptor [11]) | EC50 for cAMP generation, DiscoveRx (rat VPAC1 receptor) | other results |
| --- | --- | --- | --- | --- | --- | --- | --- | --- | --- | --- |
| CCCCCC(=O)N[C@@H](Cc1c[nH]cn1)C(=O)N[C@@H](CO)C(=O)N[C@@H](CC(=O)O)C(=O)N[C@@H](C)C(=O)N[C@H](C(=O)N[C@@H](Cc1ccccc1)C(=O)N[C@H](C(=O)N[C@@H](CC(=O)O)C(=O)N[C@@H](CC(N)=O)C(=O)N[C@@H](Cc1ccc(O)cc1)C(=O)N[C@H](C(=O)N[C@@H](CCCNC(=N)N)C(=O)N[C@@H](CC(C)C)C(=O)N[C@@H](CCCNC(=N)N)C(=O)N[C@@H](CCCCN)C(=O)N[C@@H](CCC(N)=O)C(=O)N[C@H](C(=O)N[C@@H](C)C(=O)N[C@@H](C)C(=O)N[C@@H](CCCCN)C(=O)N[C@@H](CCCCN)C(=O)N[C@@H](Cc1ccc(O)cc1)C(=O)N[C@@H](CC(C)C)C(=O)N[C@@H](CCC(N)=O)C(=O)N[C@@H](CO)C(=O)N[C@H](C(=O)N[C@@H](CCCCN)C(=O)N[C@@H](CC(N)=O)C(=O)N[C@@H](CO)C(=O)N[C@@H](CCCNC(=N)N)C(=O)N[C@H](C(=O)N[C@@H](CO)C(=O)N1CCC[C@H]1C(=O)N1CCC[C@H]1C(=O)N1CCC[C@H]1C(N)=O)[C@@H](C)O)[C@@H](C)CC)C(C)C)[C@@H](C)O)[C@@H](C)O)C(C)C [Agonist P30] (Hexanoyl-HSDAVFTDNYTRLRKQVAAKKYLQSIKNSRTSPPP-NH2) | 0.22 nM | 33.8 nM | 0.08 nM | 0.09 nM |  |  |  |  |  | Rat Serum Stability (Estimated purity in % after 72 hours) (rat serum, 72 hours): 1.0%; EC50 (human VPAC1 [1]): 6.45 nM; EC50 (human PAC1 [6]): 27 nM; IC50 (human PAC1 [7]): 214 nM; % increase AUC: Dose = 0.1 μg/kg (Normal Wistar rats; dose 0.1 μg/kg): 67%; % increase AUC: Dose = 0.5 μg/kg (Normal Wistar rats; dose 0.5 μg/kg): 241%; % increase AUC: Dose = 10 μg/kg (Normal Wistar rats; dose 10 μg/kg): 378% |
| CCCCCCCCCCCCCCCC(=O)N[C@@H](CCC(=O)NCCCC[C@H](NC(=O)[C@@H]1CCCN1C(=O)[C@@H]1CCCN1C(=O)[C@@H]1CCCN1C(=O)[C@H](CO)NC(=O)[C@@H](NC(=O)[C@H](CCCNC(=N)N)NC(=O)[C@H](CO)NC(=O)[C@H](CC(N)=O)NC(=O)[C@H](CCCCN)NC(=O)[C@@H](NC(=O)[C@H](CO)NC(=O)[C@H](CCC(N)=O)NC(=O)[C@H](CC(C)C)NC(=O)[C@H](Cc1ccc(O)cc1)NC(=O)[C@H](CCCCN)NC(=O)[C@H](CCCCN)NC(=O)[C@H](C)NC(=O)[C@H](C)NC(=O)[C@@H](NC(=O)[C@H](CCC(N)=O)NC(=O)[C@H](CCCCN)NC(=O)[C@H](CCCNC(=N)N)NC(=O)[C@H](CC(C)C)NC(=O)[C@H](CCCNC(=N)N)NC(=O)[C@@H](NC(=O)[C@H](Cc1ccc(O)cc1)NC(=O)[C@H](CC(N)=O)NC(=O)[C@H](CC(=O)O)NC(=O)[C@@H](NC(=O)[C@H](Cc1ccccc1)NC(=O)[C@@H](NC(=O)[C@H](C)NC(=O)[C@H](CC(=O)O)NC(=O)[C@H](CO)NC(=O)[C@H](Cc1c[nH]cn1)NC(=O)CCCCC)C(C)C)[C@@H](C)O)[C@@H](C)O)C(C)C)[C@@H](C)CC)[C@@H](C)O)C(N)=O)C(=O)O [Agonist P81] (Hexanoyl-HSDAVFTDNYTRLRKQVAAKKYLQSIKNSRTSPPPK([γGlu-Palmitoyl])-NH2) | 0.8 nM | 228 nM | 0.01 nM | 0.18 nM |  |  |  |  |  | Rat Serum Stability (Estimated purity in % after 18 hours) (10 μM peptide in rat serum, 37° C. vs 4° C. with aprotinin, 18 hours, EC50,4C/EC50,37C): 68.05%; EC50 (rat VPAC2 receptor [8]): 0.05 nM |
| B1 |  |  |  |  | 6.45 nM | 0.08 nM | 0.09 nM | 27 nM | 0.62 nM |  |
| Ac-HSDAVFTDNYTRLRKQVAAKKYLQSIKNSRTSPPP-NH2 [P32] |  |  |  |  | 8.24 nM | 0.32 nM | 0.65 nM |  | 0.73 nM | EC50 (nM) for cAMP generation, DiscoveRx (human PAC1 receptor [12]): 125 nM |
| HSDAVFTDNYTRLRKQVAAKKYLQSIKNSRTSPPP-NH2 [P5] |  |  |  |  | 1.1 nM | 1.5 nM | 1.21 nM | 30 nM | 0.96 nM | EC50 for cAMP generation, DiscoveRx (rat VPAC2 receptor [13]): 2.23 nM |
